Laboratory results taken from ChEMBL document CHEMBL1201862, “PubChem BioAssay data set” (2004).
Calls of active or inactive are those of the source.

Columns and labels:
[1] = target: Disintegrin and metalloproteinase domain-containing protein 17 (Homo sapiens, UniProt P78536); experiment: exosite inhibitors of ADAM17, dose response, biochemical (AID 743260)
[2] = inhibition of ADAM10 peptide cleavage – biochemical, FRET peptide substrate, recombinant human ADAM10, selectivity assay for ADAM17 exosite inhibitor project, dose response (AID 743259);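 further: ADAM10 enzyme cleaving a FRET peptide substrate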
Estrogen receptor beta = Estrogen receptor beta (Homo sapiens, UniProt Q92731);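 further: recombinant ER-beta bound to coactivator SRC1 peptide in presence of estradiol agonist; inhibitors block coactivator peptide binding and lower the FRET signal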
Estrogen receptor beta, sequence (Q92731 whole entry): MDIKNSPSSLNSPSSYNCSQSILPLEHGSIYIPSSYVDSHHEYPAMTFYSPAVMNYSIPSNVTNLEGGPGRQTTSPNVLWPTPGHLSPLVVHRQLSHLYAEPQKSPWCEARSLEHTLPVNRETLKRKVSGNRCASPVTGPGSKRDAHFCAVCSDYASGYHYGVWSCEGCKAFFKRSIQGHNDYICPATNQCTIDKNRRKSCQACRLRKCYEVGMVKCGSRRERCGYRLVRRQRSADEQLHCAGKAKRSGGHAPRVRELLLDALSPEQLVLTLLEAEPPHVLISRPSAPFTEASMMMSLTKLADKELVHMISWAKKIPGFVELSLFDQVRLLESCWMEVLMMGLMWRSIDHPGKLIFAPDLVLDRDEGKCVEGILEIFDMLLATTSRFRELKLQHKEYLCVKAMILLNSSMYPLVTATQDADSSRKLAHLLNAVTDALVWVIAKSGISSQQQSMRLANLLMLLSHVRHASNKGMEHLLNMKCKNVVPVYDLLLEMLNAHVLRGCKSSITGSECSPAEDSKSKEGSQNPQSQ

[3] = HPDE-C7 pancreatic duct cell viability loss – fluorescence, HTS (AID 430); assay type: functional, cell-based; details: Homo sapiens
[4] = viability of HCT116 lacking mutant beta-catenin – cell-based, human colon tumor, dose response (AID 1045); assay type: functional;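 further: HCT116 colon tumor cells with beta catenin knocked out; cells exposed to compound for 60 hours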
[5] = target: FAD-linked sulfhydryl oxidase ALR (Homo sapiens, UniProt P55789); experiment: ALR-catalysed DTT oxidation blockers – biochemical, H2O2 detection, luminescence, cherry-pick, dose response (AID 493248)
[6] = viability of PTEN-deleted HCT116 cells – cell-based, HCT116 PTEN knockout, dose response (AID 1047); assay type: functional;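 further: HCT116 colon tumor cells with PTEN knocked out; cells exposed to compound for 60 hours before readout; potency for loss of cell viability measured by luminescence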
[7] = viability loss of HPDE-C7K cells – cell-based, fluorescence, HTS, primary screen (AID 431); assay type: functional; details: Homo sapiens
Coagulation factor XII = target: T1, Coagulation factor XII (Homo sapiens, UniProt P00748); assay type: functional;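 further: activated factor XIIa alpha cleaving a fluorogenic AMC peptide substrate; inhibitor potency from loss of enzyme activity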
T1 sequence (P00748 whole entry): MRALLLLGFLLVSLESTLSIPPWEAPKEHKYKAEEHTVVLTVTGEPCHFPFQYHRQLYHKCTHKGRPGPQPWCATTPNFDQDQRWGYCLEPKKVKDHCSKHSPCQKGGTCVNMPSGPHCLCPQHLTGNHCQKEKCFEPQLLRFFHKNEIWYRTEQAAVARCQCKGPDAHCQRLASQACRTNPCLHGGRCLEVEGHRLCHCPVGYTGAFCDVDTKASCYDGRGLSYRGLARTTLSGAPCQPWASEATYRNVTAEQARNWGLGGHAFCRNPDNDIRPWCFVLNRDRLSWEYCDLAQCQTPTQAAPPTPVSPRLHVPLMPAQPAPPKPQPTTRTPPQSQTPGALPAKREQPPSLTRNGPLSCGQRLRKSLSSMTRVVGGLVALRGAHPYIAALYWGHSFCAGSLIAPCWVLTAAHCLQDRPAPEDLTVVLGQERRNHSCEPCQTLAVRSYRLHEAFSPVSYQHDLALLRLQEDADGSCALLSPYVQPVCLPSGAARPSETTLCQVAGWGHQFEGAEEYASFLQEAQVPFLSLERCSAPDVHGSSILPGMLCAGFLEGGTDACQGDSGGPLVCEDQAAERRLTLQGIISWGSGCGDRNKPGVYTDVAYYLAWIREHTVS

[8] = target: T2, Voltage-gated N-type calcium channel alpha-1B subunit/Amyloid beta A4 precursor protein-binding family A member 1 (Homo sapiens, UniProt Q00975+Q02410); assay type: protein assay
T2 sequence (Q00975 whole entry): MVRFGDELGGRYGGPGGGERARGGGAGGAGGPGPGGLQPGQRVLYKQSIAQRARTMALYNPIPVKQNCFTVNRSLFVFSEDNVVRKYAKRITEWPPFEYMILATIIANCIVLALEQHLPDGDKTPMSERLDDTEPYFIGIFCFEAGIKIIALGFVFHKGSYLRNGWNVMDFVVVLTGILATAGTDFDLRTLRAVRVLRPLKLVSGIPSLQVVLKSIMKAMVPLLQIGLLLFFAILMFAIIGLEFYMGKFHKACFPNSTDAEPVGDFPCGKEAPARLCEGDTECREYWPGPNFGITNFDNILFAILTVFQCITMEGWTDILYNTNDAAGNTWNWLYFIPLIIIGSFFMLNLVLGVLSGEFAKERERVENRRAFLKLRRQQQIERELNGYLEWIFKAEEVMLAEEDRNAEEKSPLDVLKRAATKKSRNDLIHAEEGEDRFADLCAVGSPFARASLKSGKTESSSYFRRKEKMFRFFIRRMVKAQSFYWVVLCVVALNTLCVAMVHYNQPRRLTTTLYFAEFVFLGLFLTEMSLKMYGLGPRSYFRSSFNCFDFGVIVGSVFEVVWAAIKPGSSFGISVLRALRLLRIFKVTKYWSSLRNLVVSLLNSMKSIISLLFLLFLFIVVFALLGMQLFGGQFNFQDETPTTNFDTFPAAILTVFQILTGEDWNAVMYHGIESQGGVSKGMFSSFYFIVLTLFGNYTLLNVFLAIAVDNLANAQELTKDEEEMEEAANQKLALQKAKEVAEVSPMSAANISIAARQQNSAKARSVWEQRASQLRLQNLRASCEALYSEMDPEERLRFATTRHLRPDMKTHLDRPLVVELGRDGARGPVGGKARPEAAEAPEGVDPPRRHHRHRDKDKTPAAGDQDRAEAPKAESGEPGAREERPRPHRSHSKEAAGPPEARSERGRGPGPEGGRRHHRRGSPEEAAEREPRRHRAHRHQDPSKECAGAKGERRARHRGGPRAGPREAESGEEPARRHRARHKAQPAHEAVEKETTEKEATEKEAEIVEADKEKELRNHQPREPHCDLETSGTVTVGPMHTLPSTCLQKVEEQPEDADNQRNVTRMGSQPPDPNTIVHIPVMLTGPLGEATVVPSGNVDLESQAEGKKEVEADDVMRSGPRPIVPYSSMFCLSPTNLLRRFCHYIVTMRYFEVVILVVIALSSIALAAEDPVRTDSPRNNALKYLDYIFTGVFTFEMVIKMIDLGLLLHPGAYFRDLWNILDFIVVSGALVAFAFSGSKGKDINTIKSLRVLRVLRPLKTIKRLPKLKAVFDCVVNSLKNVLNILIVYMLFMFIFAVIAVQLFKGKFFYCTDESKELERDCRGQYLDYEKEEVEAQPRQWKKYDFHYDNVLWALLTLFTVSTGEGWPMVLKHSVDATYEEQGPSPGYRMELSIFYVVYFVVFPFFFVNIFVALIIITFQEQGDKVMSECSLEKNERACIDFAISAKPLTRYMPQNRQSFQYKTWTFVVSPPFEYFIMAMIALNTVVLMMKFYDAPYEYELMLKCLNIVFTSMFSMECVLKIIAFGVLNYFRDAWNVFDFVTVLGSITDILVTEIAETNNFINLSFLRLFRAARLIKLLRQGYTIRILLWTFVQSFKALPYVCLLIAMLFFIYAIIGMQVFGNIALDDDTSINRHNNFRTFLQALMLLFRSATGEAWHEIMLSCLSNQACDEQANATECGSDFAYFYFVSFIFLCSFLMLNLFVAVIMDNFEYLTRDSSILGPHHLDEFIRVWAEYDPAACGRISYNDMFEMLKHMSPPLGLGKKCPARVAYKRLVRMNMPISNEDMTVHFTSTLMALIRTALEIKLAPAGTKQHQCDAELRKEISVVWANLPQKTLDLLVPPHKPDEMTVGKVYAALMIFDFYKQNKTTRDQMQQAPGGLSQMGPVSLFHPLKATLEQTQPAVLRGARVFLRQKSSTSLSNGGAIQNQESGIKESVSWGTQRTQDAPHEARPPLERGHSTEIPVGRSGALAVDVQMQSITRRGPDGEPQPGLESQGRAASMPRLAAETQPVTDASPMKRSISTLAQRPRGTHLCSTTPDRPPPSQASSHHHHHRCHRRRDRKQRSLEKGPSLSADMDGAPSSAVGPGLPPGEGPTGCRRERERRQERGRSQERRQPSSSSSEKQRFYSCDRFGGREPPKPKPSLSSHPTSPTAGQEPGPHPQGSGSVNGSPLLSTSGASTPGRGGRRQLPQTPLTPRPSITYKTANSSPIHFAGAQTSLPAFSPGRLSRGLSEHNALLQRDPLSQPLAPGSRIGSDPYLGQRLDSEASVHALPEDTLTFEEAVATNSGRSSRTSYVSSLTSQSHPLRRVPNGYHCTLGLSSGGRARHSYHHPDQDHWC
T2 sequence (Q02410 whole entry): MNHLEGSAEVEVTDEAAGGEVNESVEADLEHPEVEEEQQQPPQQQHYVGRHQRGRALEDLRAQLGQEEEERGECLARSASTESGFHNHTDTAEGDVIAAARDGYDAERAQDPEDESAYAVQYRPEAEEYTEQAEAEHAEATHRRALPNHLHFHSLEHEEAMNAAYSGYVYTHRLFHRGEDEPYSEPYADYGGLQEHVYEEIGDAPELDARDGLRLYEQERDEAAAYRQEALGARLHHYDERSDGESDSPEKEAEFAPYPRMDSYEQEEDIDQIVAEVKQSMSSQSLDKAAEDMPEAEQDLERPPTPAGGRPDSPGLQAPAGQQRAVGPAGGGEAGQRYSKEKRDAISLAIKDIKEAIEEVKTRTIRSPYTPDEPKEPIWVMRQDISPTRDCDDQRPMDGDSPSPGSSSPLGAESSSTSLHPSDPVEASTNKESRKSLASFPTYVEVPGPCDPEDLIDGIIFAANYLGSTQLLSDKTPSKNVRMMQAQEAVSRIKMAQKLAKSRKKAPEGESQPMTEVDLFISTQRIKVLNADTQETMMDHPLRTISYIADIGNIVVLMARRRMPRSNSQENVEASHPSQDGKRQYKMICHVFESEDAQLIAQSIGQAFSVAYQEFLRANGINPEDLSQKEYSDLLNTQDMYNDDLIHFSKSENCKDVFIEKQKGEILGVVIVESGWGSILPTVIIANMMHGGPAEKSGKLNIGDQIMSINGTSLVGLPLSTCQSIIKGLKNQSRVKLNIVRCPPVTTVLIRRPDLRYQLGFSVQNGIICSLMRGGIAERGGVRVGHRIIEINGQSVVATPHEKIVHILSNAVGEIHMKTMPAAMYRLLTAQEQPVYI

[9] = target: DNA dC->dU-editing enzyme APOBEC-3G (Homo sapiens, UniProt Q9HC16); experiment: Dose Response confirmation of small molecule APOBEC3G DNA Deaminase Inhibitors via a fluorescence-based single-stranded DNA deaminase assay. [Related pubchem assays (depositor defined):AID493012, AID493028]; assay type: functional
[10] = target: T2, Voltage-gated N-type calcium channel alpha-1B subunit/Amyloid beta A4 precursor protein-binding family A member 1; assay type: protein assay; remark: listed apart in the source
Cytochrome P450 2C19 = Cytochrome P450 2C19 (Homo sapiens, UniProt P33261); experiment: Cytochrome panel assay with activity outcomes. Panel member name: p450-cyp2c19 Compounds with AC50 equal or less than 10 uM are considered active; assay type: functional; details: read-out: AC50
Cytochrome P450 3A4 = Cytochrome P450 3A4 (Homo sapiens, UniProt P08684);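 further: CYP3A4 tested as one member of a cytochrome P450 panel screen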
Cytochrome P450 3A4, sequence (P08684 whole entry): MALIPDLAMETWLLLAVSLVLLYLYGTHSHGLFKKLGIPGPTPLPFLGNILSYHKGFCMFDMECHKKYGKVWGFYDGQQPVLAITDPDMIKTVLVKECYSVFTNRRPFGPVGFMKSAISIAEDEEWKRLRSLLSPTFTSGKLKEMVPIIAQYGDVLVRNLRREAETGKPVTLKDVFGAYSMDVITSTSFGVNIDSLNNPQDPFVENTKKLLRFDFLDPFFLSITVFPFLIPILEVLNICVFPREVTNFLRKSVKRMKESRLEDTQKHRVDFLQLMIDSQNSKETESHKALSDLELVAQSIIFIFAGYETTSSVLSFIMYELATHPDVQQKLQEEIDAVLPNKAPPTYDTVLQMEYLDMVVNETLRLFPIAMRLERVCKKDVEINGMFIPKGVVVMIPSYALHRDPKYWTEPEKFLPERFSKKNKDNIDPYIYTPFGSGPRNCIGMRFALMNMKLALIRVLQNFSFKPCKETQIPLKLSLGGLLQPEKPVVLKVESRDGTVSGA

[11] = viability of uninfected HEp-2 cells – cell-based, HTS, cytotoxicity control for RSV inhibitor project, dose response (AID 2410); assay type: functional; details: human respiratory syncytial virus
Cytochrome P450 2C9 = Cytochrome P450 2C9 (Homo sapiens, UniProt P11712)
[12] = Luminescence Cell-Based Dose Retest to Confirm Inhibitors of Cancer Stem Cells. [Related pubchem assays (depositor defined):AID2717, AID2721]; assay type: functional; details: Homo sapiens
[13] = Luminescence Cell-Based Dose Confirmation to Identify Activators of 5'UTR Stem-Loop Driven Alpha-Synuclein mRNA Translation in H4 Neuroglioblastoma Cells. [Related pubchem assays: 1829 (Project Summary), 1814 (Primary HTS)]; assay type: functional
H4 = experiment: Luminescence Cell-Based Dose Response HTS to Identify Activators of 5'UTR Stem-Loop Driven Prion Protein mRNA Translation in H4 Neuroglioblastoma Cells. [Related pubchem assays: 1829 (Project Summary), 1814 (Primary HTS)]; assay type: functional; details: Homo sapiens
[14] = Luminescence Cell-Based Dose Response to Identify Activators of 5'UTR Stem-Loop Driven Prion Protein mRNA Translation in H4-C Neuroglioblastoma Cells. [Related pubchem assays: 1829 (Project Summary), 1814 (Primary HTS)]; assay type: functional
[15] = Luminescence Cell-Based Dose Response HTS to Identify Activators of Luciferase Translation or Activity in H4 […] Cells. [Related pubchem assays: 1829 (Project Summary), 1814 (Primary HTS)]; assay type: functional
[16] = Luminescence Cell-Based Dose Confirmation HTS to Identify Activators of 5'UTR Stem-Loop Driven Alpha-Synuclein mRNA Translation in H4 Neuroglioblastoma Cells. [Related pubchem assays: 1829 (Project Summary), 1814 (Primary HTS)]; assay type: functional
[17] = Luminescence Cell-Based Dose Response to Identify Activators of Luciferase Translation or Activity in H4-C Neuroglioblastoma Cells. [Related pubchem assays: 1829 (Project Summary), 1814 (Primary HTS)]; assay type: functional
[18] = target: T3, Polyadenylate-binding protein 1 (Homo sapiens, UniProt P11940); experiment: MLLE binding blockers, Cy5 peptide tracer – biochemical, fluorescence polarization, Cy5-PAM2 peptide, secondary, miRNA deadenylation inhibitor project, dose response (AID 602260); assay type: functional; details: read-out: IC50_Mean
[19] = target: T3, Polyadenylate-binding protein 1; experiment: MLLE domain peptide-binding blockers, IC50 – biochemical, fluorescence polarization, FITC-PAM2 peptide, dose response (AID 602259); assay type: functional; details: read-out: IC50_Mean
[20] = target: Peroxisome proliferator-activated receptor gamma/Nuclear receptor coactivator 2 (Homo sapiens, UniProt P37231); experiment: (§1) TR-FRET dose response biochemical High Throughput Screening assay for agonists of the steroid receptor coactivator 2 (SRC-2) recruitment by the peroxisome proliferator-activated receptor gamma (PPAR gamma): non-selective agonists. [Related pubchem assays: 1297, 1032 ]; assay type: functional
[21] = target: Peroxisome proliferator-activated receptor gamma/Nuclear receptor coactivator 1 (Homo sapiens, UniProt P37231); experiment: as §1, with “1 (SRC-1)” for “2 (SRC-2)”, “assays (depositor defined):AID1300, AID1808, AID504735, AID631]” for “assays: 1297, 1032 ]”; assay type: protein assay
[22] = target: Peroxisome proliferator-activated receptor gamma/Nuclear receptor coactivator 3 (Homo sapiens, UniProt P37231); experiment: as §1, with “3 (SRC-3)” for “2 (SRC-2)”, “1301 (Confirmation screen.), 1048 (Primary screen.)]” for “1297, 1032 ]”; assay type: functional
[23] = target: T4, Histone-lysine N-methyltransferase NSD2 (Homo sapiens, UniProt O96028); assay type: biochemical
T4 sequence (O96028 whole entry): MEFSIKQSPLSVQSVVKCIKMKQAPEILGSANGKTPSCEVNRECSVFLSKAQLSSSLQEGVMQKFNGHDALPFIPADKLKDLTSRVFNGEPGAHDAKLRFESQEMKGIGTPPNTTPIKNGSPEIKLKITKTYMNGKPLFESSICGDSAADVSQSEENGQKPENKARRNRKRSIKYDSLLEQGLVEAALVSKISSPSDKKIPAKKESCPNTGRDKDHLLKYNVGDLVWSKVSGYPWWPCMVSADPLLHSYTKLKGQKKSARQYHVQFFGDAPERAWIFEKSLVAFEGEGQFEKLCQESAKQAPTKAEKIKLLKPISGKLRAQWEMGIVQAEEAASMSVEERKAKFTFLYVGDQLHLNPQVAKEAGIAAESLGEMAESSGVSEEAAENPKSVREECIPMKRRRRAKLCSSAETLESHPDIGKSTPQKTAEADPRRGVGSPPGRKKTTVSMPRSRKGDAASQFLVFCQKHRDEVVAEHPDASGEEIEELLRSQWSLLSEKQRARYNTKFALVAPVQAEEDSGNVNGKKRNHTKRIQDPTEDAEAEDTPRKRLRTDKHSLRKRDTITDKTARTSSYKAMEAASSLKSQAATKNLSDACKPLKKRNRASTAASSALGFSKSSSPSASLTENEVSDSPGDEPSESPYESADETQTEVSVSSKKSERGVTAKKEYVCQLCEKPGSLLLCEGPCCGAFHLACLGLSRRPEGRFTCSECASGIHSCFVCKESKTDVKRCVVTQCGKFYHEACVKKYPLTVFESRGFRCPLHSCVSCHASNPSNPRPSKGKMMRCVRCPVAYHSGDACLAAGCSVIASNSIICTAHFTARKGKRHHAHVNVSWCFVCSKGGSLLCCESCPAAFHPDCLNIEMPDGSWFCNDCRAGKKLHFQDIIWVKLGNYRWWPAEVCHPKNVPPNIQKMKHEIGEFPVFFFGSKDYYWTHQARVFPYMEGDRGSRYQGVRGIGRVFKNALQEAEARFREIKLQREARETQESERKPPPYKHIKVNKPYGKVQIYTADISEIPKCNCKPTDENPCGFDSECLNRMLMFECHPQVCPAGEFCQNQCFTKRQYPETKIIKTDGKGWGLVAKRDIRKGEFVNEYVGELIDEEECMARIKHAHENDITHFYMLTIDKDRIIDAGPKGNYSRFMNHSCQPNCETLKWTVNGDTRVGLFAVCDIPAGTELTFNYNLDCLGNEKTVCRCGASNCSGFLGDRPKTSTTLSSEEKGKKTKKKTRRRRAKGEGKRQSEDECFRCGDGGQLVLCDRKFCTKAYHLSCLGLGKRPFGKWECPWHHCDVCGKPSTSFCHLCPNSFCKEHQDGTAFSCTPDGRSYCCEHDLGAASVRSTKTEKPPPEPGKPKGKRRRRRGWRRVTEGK

Disintegrin and metalloproteinase domain-containing protein 17, sequence (P78536 whole entry, the tested form may be a part): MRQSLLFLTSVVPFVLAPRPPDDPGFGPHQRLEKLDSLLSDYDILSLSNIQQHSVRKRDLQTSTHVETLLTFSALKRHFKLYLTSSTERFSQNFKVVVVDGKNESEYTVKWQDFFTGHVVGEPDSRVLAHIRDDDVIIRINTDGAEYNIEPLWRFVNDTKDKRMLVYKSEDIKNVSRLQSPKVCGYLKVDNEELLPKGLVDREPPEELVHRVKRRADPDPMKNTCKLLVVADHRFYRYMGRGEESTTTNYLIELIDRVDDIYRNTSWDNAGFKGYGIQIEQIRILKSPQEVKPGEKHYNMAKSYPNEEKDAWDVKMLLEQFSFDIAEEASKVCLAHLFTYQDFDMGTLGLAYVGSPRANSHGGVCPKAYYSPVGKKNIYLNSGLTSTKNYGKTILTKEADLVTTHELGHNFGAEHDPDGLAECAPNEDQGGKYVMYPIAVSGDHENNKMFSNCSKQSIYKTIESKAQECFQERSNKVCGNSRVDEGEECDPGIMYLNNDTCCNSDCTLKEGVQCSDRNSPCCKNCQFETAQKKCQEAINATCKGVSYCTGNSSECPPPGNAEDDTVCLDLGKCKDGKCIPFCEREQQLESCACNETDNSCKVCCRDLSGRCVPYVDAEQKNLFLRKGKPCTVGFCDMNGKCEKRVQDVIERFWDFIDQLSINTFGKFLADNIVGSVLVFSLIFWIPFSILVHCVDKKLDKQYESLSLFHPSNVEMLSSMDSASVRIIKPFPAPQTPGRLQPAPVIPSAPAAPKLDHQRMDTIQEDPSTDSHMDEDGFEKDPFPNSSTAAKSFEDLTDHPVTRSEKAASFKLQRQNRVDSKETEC

COc1ccc(-c2ccc(CN3C(C(C)C)C(=O)N(Cc4cn(Cc5ccco5)nn4)CCS3(=O)=O)cc2)cc1OC (centres undefined)
IC50 [1]: > 69.5 µM (inactive) | IC50 [2]: > 69.5 µM (inactive)

COC(=O)Nc1c(-c2ccccc2)nc2ccc(C)cn12
IC50 (Estrogen receptor beta): > 50 µM (not active)

CCN(CCNC(=O)C1CCN(Cc2nc(-c3ccc(Cl)cc3)oc2C)CC1)c1ccccc1
EC50 [3]: > 20 µM (not active) | EC50 [4]: 6.26 µM (active) | AC50 [5]: 4.08 µM (active) | EC50 [6]: 6.02 µM (active) | EC50 [7]: > 20 µM (not active)

COCCNC(=O)CSc1nnc2c(Cl)cc(Cl)cn12
IC50 (Coagulation factor XII): > 50 µM (inactive)

COc1ccc(OC)c(C2CC(=O)N3CN(c4ccccc4)CSC3=C2C#N)c1 (centres undefined)
IC50 [8]: 6.54 µM (active) | IC50 [9]: 11.8 µM (active) | IC50 [10]: > 50 µM (inactive)

COc1ccc(/N=C2\SC(CC(=O)Nc3ccc(F)cc3)C(=O)N2Cc2ccco2)cc1 (centres undefined)
IC50 [1]: > 69.5 µM (inactive) | IC50 [2]: > 69.5 µM (inactive)

COC(=O)N1CCC2(CC1)CN(C(c1ccccc1)c1ccccc1)C2
AC50 (Cytochrome P450 2C19): 39.8 µM (inconclusive) | AC50 (Cytochrome P450 3A4): inconclusive

Cc1oc2nc(SCC(=O)NCCCO)nc(N)c2c1C
IC50 (Estrogen receptor beta): > 50 µM (not active)

COc1ccc(NC(=O)c2oc3ccccc3c2NC(=O)c2ccc(OC)c(OC)c2)c(OC)c1
EC50 [3]: > 20 µM (not active) | EC50 [7]: > 20 µM (not active)

Cn1c2c(c3ccccc31)CCSC2=O
IC50 (Coagulation factor XII): > 50 µM (inactive) | CC50 [11]: > 50 µM (active)

C/C(NCCN1CCOCC1)=C1/C(=O)NC(=O)N(Cc2ccccc2)C1=O
AC50 (Cytochrome P450 2C9): 25.1 µM (inconclusive) | AC50 (Cytochrome P450 3A4): inconclusive

Cc1ccc(/C=C/C(=O)Nc2ccc(Oc3ccccc3)cc2)o1
IC50 [1]: > 69.6 µM (inactive) | IC50 [2]: > 69.6 µM (inactive) | AC50 [12]: 5.29 µM (active)

COc1ccc(-c2csc(NC(=O)COC(=O)c3ccco3)n2)cc1
EC50 [13]: > 12 µM (not active) | EC50 (H4): 0.188 µM (active) | EC50 [14]: > 12 µM (not active) | EC50 [15]: 29 µM (active) | EC50 [16]: 35.9 µM (active) | EC50 [17]: > 12 µM (not active)

CCNC(=S)NC(=Nc1nc(C)cc(C)n1)NCc1cccnc1
IC50 [8]: 9.16 µM (active) | IC50 [18]: > 66 µM (inactive) | IC50 [19]: > 66 µM (inactive) | IC50 [10]: > 50 µM (inactive)

COc1ccc2c3nc4ccccc4c-3c(O)oc2c1
EC50 [13]: 0.393 µM (active) | EC50 (H4): 20.1 µM (inconclusive) | EC50 [14]: > 12 µM (not active) | EC50 [15]: < 0.1 µM (active) | EC50 [20]: 8.33 µM (active) | EC50 [21]: 7.49 µM (active) | EC50 [22]: > 79.4 µM (not active) | EC50 [17]: 0.533 µM (active)

Fc1cc(F)c2nc(N3CCCC3)sc2c1
IC50 (Coagulation factor XII): > 50 µM (inactive)

CC(C)CN(CC(C)C)C1=N/C(=C\c2ccco2)C(=O)N1c1ccccc1
AC50 (Cytochrome P450 3A4): inconclusive

CCC(C)NCCCCOc1ccc(Cl)cc1C (centres undefined)
AC50 [23]: > 20 µM (inactive)

COc1ccc(C2N(c3ccccc3)CCN2c2ccccc2)cc1O
IC50 (Coagulation factor XII): > 50 µM (inactive)

CC1CCN(C(=O)c2ccc3ccccc3c2)CC1
EC50 [13]: 0.449 µM (active) | EC50 (H4): > 120 µM (not active) | EC50 [14]: 1.09 µM (active) | EC50 [15]: 35 µM (active) | EC50 [16]: < 0.1 µM (active) | EC50 [17]: 10.2 µM (active)
